{"source": "patent US6974665B2", "about": "“In situ screening to optimize variables in organic reactions” (University of Nebraska, priority 2001, dated 2005)", "origin": "cited, not measured here", "key": {"cystathionine γ-synthase": {"molecular_target": "T1, cystathionine γ-synthase (Nicotiana tabacum, UniProt Q9ZPL5)", "T1 sequence (Q9ZPL5 79-540)": "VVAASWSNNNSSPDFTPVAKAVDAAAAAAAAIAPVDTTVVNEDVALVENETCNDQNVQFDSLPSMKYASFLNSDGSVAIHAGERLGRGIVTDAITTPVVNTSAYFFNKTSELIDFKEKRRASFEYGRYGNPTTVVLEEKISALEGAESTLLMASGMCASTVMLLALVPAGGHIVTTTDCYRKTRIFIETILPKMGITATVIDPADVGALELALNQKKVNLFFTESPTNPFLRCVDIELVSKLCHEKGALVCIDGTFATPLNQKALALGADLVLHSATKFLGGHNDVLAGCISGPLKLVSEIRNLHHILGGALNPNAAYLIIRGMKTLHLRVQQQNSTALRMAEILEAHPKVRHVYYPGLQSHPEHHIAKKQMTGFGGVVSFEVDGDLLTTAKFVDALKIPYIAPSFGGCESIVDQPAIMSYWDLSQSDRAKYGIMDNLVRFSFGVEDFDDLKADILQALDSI", "details": "tight-binding reversible inhibitor"}, "threonine synthase": {"molecular_target": "T2, threonine synthase (Escherichia coli, UniProt P00934)", "T2 sequence (P00934 1-428)": "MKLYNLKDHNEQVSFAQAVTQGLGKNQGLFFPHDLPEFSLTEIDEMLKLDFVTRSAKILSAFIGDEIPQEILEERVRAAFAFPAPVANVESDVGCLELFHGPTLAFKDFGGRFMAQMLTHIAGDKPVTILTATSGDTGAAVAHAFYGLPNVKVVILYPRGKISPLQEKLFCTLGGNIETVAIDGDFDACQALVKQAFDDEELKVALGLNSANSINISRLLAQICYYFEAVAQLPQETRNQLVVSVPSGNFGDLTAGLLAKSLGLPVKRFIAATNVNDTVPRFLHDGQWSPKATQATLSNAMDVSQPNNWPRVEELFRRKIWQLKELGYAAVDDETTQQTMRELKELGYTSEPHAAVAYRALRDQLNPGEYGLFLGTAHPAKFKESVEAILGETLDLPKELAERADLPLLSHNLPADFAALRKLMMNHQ", "details": "irreversible inhibitor"}}}
{"smiles": "NC(/C=C/CP(=O)(O)O)C(=O)O", "note": "(stereo not drawn) [APPA, (E)-2-Amino-5-phosphono-3-pentenoic Acid]", "values": [{"measurement": "Ki", "setting": "cystathionine γ-synthase", "result": 27, "unit": "µM"}, {"measurement": "Ki", "setting": "threonine synthase", "result": 400, "unit": "µM"}, {"measurement": "kinact", "setting": "threonine synthase", "result": 0.25, "unit": "min⁻¹"}]}
